Measured values from PMC9610793, “Novel Aporphine- and Proaporphine–Clerodane Hybrids Identified from the Barks of Taiwanese Polyalthia longifolia (Sonn.) Thwaites var. pendula with Strong Anti-DENV2 Activity” (Pharmaceuticals, 2022).

Tests used:
DENV2 = assay: In vitro anti-DENV2 post-infection assay: DENV2 RNA level by RT-qPCR in DENV2-infected Huh-7 cells; format: cell-based, DENV serotype 2 (strain 16681); conditions: for IC50 / EC50: Dengue virus; for IC50: DENV2, Huh-7, 72 h, read-out: IC50 (concentration of the compound resulting in a 50% inhibition in virus production); for EC50: DENV2-infected Huh-7 cells, range over compounds 1–4; for SI (selectivity index, SI = CC50/IC50): CC50 in uninfected Huh-7 cells / IC50 against DENV2
Method: Concerning their biological activity, the anti-DENV2 activity of polyalongarins A–D (1–4) was examined using post-infection assay. The DENV2-infected Huh-7 cells were incubated with each of 1–4 at a concentration of 5, 10, or 20 μM for 72 hrs (0.2 μM celastrol and 0.1% DMSO served as positive control and mock control, respectively). […] Based on previous reports, a compound that diminishes the DENV activity by 90% but presents a 50% cytotoxic concentration (CC50) > 15 μM is considered a “hit”. By this definition, compounds 1–4 are good hits without doubt.
(§1) Figure 5 In vitro anti-DENV2 assay for 1–4. (A) DENV2-infected/uninfected Huh-7 cells were incubated with celastrol (Cela, 0.2 μM, positive control) or indicated concentrations of 1–4 (5 to 25 μM) for 72 h. Total DENV2 RNA expression (%) was extracted and quantified. The DENV2 RNA level was measured by RT-qPCR. The DENV2 RNA expression was normalized by cellular GAPDH mRNA. (B) DENV2-infected Huh-7 cells were treated with 10 μM of 1–4. The NS2B protein expression was analyzed by western blotting with anti-NS2B and anti-GAPDH antibodies (a loading control). (C) The cell viability (%) was determined by the XTT method. Treatment with 0.1% DMSO served as a mock control. The results are expressed as the means ± standard errors of the means (SEM) of triplicate experiments.
Huh-7 human liver carcinoma cell line, purchased from Bioresources Collection and Research Center, Taiwan, were maintained in Dulbecco’s modified Eagle’s medium (DMEM) supplemented with 10% fetal bovine serum (FBS), 1% non-essential amino acids (NEAA), and 1% penicillin and streptomycin at 37 °C in a humidified 5% CO2 incubator. The DENV serotype 2 (strain 16681) was directly from the Centers for Disease Control, Department of Health, Taiwan, and was amplified in Aedes albopictus C6/36 cell line (CRL-1660, ATCC, USA). C6/36 cells were cultured in RPMI 1640 medium supplemented with 2% FBS. Huh-7 cells were seeded at a density of 5 × 10^4 cells/mL in the 24-well plate for 16–20 h and then infected with DENV2 at a multiplicity of infection (MOI) of 0.1 PFU/cell for 2 h at 37 °C. The viral titer was determined in a plaque assay in the Huh-7 cells. Then, DENV2-infected Huh-7 cells were washed with PBS and refilled, respectively, with DMEM−2% FBS medium containing […] (positive control), 0.1% DMSO (mock control), and various indicating concentration of test compounds. After incubation at 37 °C for 72 h, DENV2-infected Huh-7 cells were harvested and cell lysates were prepared for quantification of DENV RNA by RT-qPCR. Total cellular RNA was extracted using Total RNA Miniprep Purification Kit (GMbiolab, Taiwan) according to the manufacturer’s instructions.

[1] = Cytotoxic assay (XTT cell viability); format: cell-based; conditions: human, uninfected Huh-7 cells, read-out: CC50 (concentration of the compound causing a 50% growth inhibition of uninfected Huh-7 cells)
Method: as §1
In structural elucidation, the optical rotations were determined using a JASCO P-1020 polarimeter (Jasco Co., Tokyo, Japan); the ultraviolet spectra (UV) were recorded on a JASCO V530 UV/VIS spectrophotometer; the circular dichroism spectroscopy (CD) were recorded on a JASCO J-815 spectrophotometer; the infrared spectra (IR) were recorded on a Mattson Genesis II FT-IR spectrophotometer (Thermo Nicolet, Madison, WI, USA); electrospray ionization mass (ESIMS) and high-resolution ESIMS data were measured using a VG Biotech Quattro 5022 mass spectrometer (VG Biotech, UK); nuclear magnetic resonance (NMR) spectra were collected on a Varian Unity Inova-400 MHz NMR system; the single crystal X-ray diffraction of pure compounds was determined by Bruker APEX II X-ray single crystal diffractometer. In chemical isolation and separation, column chromatography (CC) was applied including silica gel 60 (70–230 and 230–400 mesh, Merck, Darmstadt, Germany), Sephadex LH-20 (Pharmacia), and pre-coated silica gel TLC plates (aluminum Merck Silica gel 60 F254). […] In biological evaluation, cell viability/cytotoxicity assay was evaluated using CellTiter 96 AQueous One Solution Cell Proliferation Assay (Promega, Madison, WI, USA) according to the manufacturer’s instructions, where the color intensity was detected at 490 nm using a 550 BioRad plate-reader for determining the number of viable cells in proliferation. Computational modeling analyzed by PyMOL 2.0 software (creator is Warren L. DeLano; published by Schrödinger, Inc. 2017; and the latest vision is PyMOL 2.5 vision).
Huh-7 cells were seeded in 96-well plates at a density 5 × 10^4 cells/well in 120 μL of culture medium and incubated for 6 hr in a humidified CO2 (5%) atmosphere. […] Then, the XTT method was applied to cell viability evaluation: cells were dyed by 2,3-bis(2-methyloxy-4-nitro-5-sulfophenyl)-2H-tetrazolium-5-carboxanilide and recorded by an enzyme-linked immunosorbent assay (ELISA) plate reader (at UV 490 nm). […]

| SMILES | IC50 (DENV2) | CC50 at 72 h [1] | EC50 (DENV2) | SI (selectivity index, SI = CC50/IC50) (DENV2) |
| --- | --- | --- | --- | --- |
| CC1=C(O)C(=O)C=C2C1=CC=C1[C@@]2(C)CC[C@@]2(C)[C@@H]3C[C@](C)(C(=O)O)CC[C@]3(C)CC[C@]12C [Celastrol, reference compound] | 0.12 ± 0.01 µM |  |  |  |
| CC1=CCCC2C1(C)CCC(C)C2(C)CCC1=CC(=O)OC1N1CCc2cc3c(c4c2C1Cc1ccccc1-4)OCO3 (stereo not shown) [polyalongarin A (1), Polyalongarin A] | 4.46 ± 0.12 µM | > 200 µM | 2.8 to 6.4 µM |  |
| COc1c2c3c(c(OC)c1OC)-c1ccccc1C[C@H]3N([C@@H]1OC(=O)C=C1CC[C@@]1(C)[C@H](C)CC[C@@]3(C)C(C)=CCC[C@H]13)CC2 [polyalongarin B (2), Polyalongarin B] | 2.8 ± 0.23 µM | 50.4 ± 10.2 µM | 2.8 to 6.4 µM | 18 |
| COc1cc2c(cc1O)CC1c3c(cc(OC)c(OC)c3-2)CCN1C1OC(=O)C=C1CCC1(C)C(C)CCC2(C)C(C)=CCCC21 (stereo not shown) [polyalongarin C (3), Polyalongarin C] | 3.24 ± 0.16 µM | 69.1 ± 14 µM | 2.8 to 6.4 µM | 21.3 |
| COc1cc2c3c(c1OC)C1(C=CC(=O)C=C1)C[C@H]3N([C@@H]1OC(=O)C=C1CC[C@@]1(C)[C@H](C)CC[C@@]3(C)C(C)=CCC[C@H]13)CC2 [polyalongarin D (4), Polyalongarin D] | 6.36 ± 0.09 µM | 94.5 ± 10.2 µM | 2.8 to 6.4 µM | 14.9 |
